Holding throughout (type): cell-based
Assay [1] relates to M. tuberculosis H37Ra. Kind of assay: MIC and MBC determination using 2-fold dilutions. The conditions noted are these: for MIC / MBC: Mycobacterium tuberculosis.
Assay [2] deals with M. tuberculosis H37Ra. The assay can be described thus: colorimetric microdilution broth assay with alamar Blue, initial screen at four log10 dilutions. The conditions noted are these: initial screening at 0.128, 1.28, 12.8 and 128 μg/mL. How it is done: The compounds synthesized above were evaluated for activity against M. tuberculosis H37Ra using a colorimetric microdilution broth assay that incorporated the REDOX indicator alamar Blue, which indicates the growth and viability by the metabolic reduction of the dye from blue to red^18.
In an initial screen, the compounds were assayed in duplicate at four log10 dilutions, with the highest concentration being 128 μg/mL (therefore, tested concentrations were 0.128, 1.28, 12.8, and 128 μg/mL). Each solubilized test compound was diluted in broth medium (Middlebrook 7H9+ADC enrichment+0.2% glycerol) at twice the desired concentration and 0.05 mL of each dilution then added to appropriate wells in duplicate in a 96 well (U-shaped) microtiter plates. A plate format was designed for up to seven (7) compounds per plate. Each plate also included uninoculated drug controls, viability controls, uninoculated medium controls, and positive drug controls. The inoculum for each well consisted of 0.05 mL of culture, standardized as described above to provide an inoculum in each microtiter well of approximately 10^5 CFU/mL. The plates were covered with a lid, placed in polyethylene bags and incubated for at 37° C. for 6 days. At that time, alamar Blue, diluted in Tween 80, was added to each well followed by further incubation for about 20 hours. The plates were read in an optical microplate reader programmed to subtract absorbance at 600 nm from absorbance at 570 nm. This effectively blanked out turbidity and absorbance due to oxidized dye. The amount of dye reduced, resulting in a change from blue to red, is indicative of drug yielding a differential absorption of zero or less.

Assay [3] deals with H37Rv strain of M. tuberculosis. Kind of assay: BACTEC 460 radiometric system in BACTEC 12B medium: inhibition and MIC. The conditions noted are these: for MIC: lowest concentration inhibiting 99% of the inoculum.
The mark [4] stands for this setting: 2-fold dilutions, lowest concentration that completely inhibits growth, H37Ra, read-out: MIC.
Where [5] appears, read: minimum bactericidal concentration, H37Ra, read-out: MBC.
The mark [6] stands for this setting: Mycobacterium tuberculosis, H37RA, read-out: MIC.
The mark [7] stands for this setting: Mycobacterium tuberculosis, H37RA.

In brackets after ≈: the same amount, converted by molar mass. Like-named read-outs stand apart in the source and are kept apart here.

By MIC is commonly meant the lowest concentration found to suppress growth. What is called MBC is the smallest concentration meeting the test's criterion for killing. `C=CCOc1cc(OCC=C)c2c(CCC)cc(=O)oc2c1C(O)CC` (stereo not shown) [Compound 21d, 5,7-Bis-allyloxy-8-(1-hydroxy-propyl)-4-propyl-chromen-2-one]: the MIC in assay [1] (setting [4]) was 16 mg/L (≈ 44.6 µM); in assay [2] (setting [6]) it was 1.28 to 12.8 mg/L (≈ 3.57 to 35.7 µM). In addition, the minimum bactericidal concentration (MBC) in assay [1] (setting [5]) is more than 64 mg/L.

For the molecule `CCCc1cc(=O)oc2c(C(=O)CC)c(O)c3c(c12)OC(C)(C)C=C3` [Compound 30, 5-hydroxy-2,2-dimethyl-6-propionyl-10-propyl-2H-pyrano[2,3-f]chromen-8-one], the MIC in assay [2] (setting [6]) was more than 128 mg/L.

As to `CCCc1cc(=O)oc2c(C(=O)CC)c(OCCO)c3c(c12)OC(C)(C)CC3` [Compound 44e, 5-(2-Hydroxyethoxy)-2,2-dimethyl-6-propionyl-10-propyl-3,4-dihydro-2H-pyrano[2,3-f]chromen-8-one], the MIC in assay [2] (setting [6]) lay within 12.8 to 128 mg/L (≈ 33 to 330 µM).

In general, % Inhibition refers to the relative decrease from the control value, in per cent. High values mean a response far below the control, low ones a response near the control. For the molecule `CCCc1cc(=O)oc2c3c(c4c(c12)OC(C)(C)C=C4)O[C@H](C)[C@H](C)C3=O` [(+)-Calanolide D (8), (+)-Calanolide D], in assay [3] (12.5 μg/mL), the “% Inhibition” value stood at 57%. The MIC in assay [3] was more than 12.5 mg/L.

As to `CCCc1cc(=O)oc2c(C(=O)CC)c3c(c(O)c12)C=CC(C)(C)O3` [Compound 47], the MIC in assay [2] (setting [6]) lay in the range of 12.8 to 128 mg/L (≈ 37.4 to 374 µM).

For the molecule `CCCc1cc(=O)oc2c(C(O)CC)c(OC)c3c(c12)OC(C)(C)C=C3` (stereo not shown) [Compound 11b, 6-(1-Hydroxypropyl)-5-methoxy-2,2-dimethyl-10-propyl-2H-pyrano[2,3-f]chromen-8-one], the MIC in assay [2] (setting [7]) fell in the range of 12.8 to 128 mg/L (≈ 35.7 to 357 µM).

As to `CCCc1cc(=O)oc2c(C(O)CC)c(OCCO)c3c(c12)OC(C)(C)CC3` (stereo not shown) [Compound 12e, 5-(2-Hydroxyethoxy)-6-(1-hydroxypropyl)-2,2-dimethyl-10-propyl-3,4-dihydro-2H-pyrano[2,3-f]chromen-8-one], the MIC in assay [2] (setting [6]) is 12.8 to 128 mg/L (≈ 32.8 to 328 µM).

In the case of `CCCc1cc(=O)oc2c(C(=O)CC)c(OC)c3c(c12)OC(C)(C)C=C3` [Compound 31b, 5-Methoxy-2,2-dimethyl-6-propionyl-10-propyl-2H-pyrano[2,3-f]chromen-8-one], the minimum inhibitory concentration (MIC) in assay [2] (setting [6]) fell in the range of 12.8 to 128 mg/L (≈ 35.9 to 359 µM).

For the molecule `CCCc1cc(=O)oc2c(C(=O)CC)c(OCCN3CCOCC3)c3c(c12)OC(C)(C)CC3` [2,2-Dimethyl-5-(2-morpholin-4-yl-ethoxy)-6-propionyl-10-propyl-3,4-dihydro-2H-pyrano[2,3-f]-chromen-8-one], the MIC in assay [2] (setting [6]) is more than 128 mg/L.

On to `CCCc1cc(=O)oc2c(C(N)CC)c(O)c3c(c12)OC(C)(C)C=C3` (stereo not shown) [Compound 45a, 6-(1-Aminopropyl)-5-hydroxy-2,2-dimethyl-10-propyl-2H-pyrano[2,3-f]chromen-8-one], for which, in assay [2] (setting [6]), the MIC fell in the range of 12.8 to 128 mg/L (≈ 37.3 to 373 µM).

For `CCCc1cc(=O)oc2c(C(=O)CC)c3c(c(OCC)c12)C=CC(C)(C)O3` [Compound 48], in assay [2] (setting [6]), the MIC fell in the range of 12.8 to 128 mg/L (≈ 34.6 to 346 µM).

With `CCCc1cc(=O)oc2c(C(CC)NCC)c(OC)c3c(c12)OC(C)(C)C=C3.Cl` (stereo not shown) [Compound 45g, 6-(1-Ethylaminopropyl)-5-methoxy-2,2-dimethyl-10-propyl-2H-pyrano[2,3-f]chromen-8-one, hydrochloride], the MIC in assay [2] (setting [6]) was 12.8 to 128 mg/L.

As to `CCCc1cc(=O)oc2c3c(c4c(c12)OC(C)(C)CC4)OC(C)C(C)C3=O` (racemic) [(±)-7,8-Dihydro-12-Oxocalanolide A (7), (±)-7,8-Dihydro-12-Oxocalanolide A], the “% Inhibition” value in assay [3] (12.5 μg/mL) was 43%. Further, the MIC in assay [3] is more than 12.5 mg/L.

In assay [2], `CCCc1cc(=O)oc2c(C(=O)CC)c(OCCO)c3c(c12)OC(C)(C)CC3` [Compound 44k] came in with a minimal inhibitory concentration (MIC) of more than 128 mg/L.

In assay [2] (setting [7]), `CCCc1cc(=O)oc2c(C(O)CC)c(OC)c3c(c12)OC(C)(C)CC3` (stereo not shown) [Compound 12b, 6-(1-Hydroxypropyl)-5-methoxy-2,2-dimethyl-10-propyl-3,4-dihydro-2H-pyrano[2,3-f]chromen-8-one] gave an MIC of 12.8 to 128 mg/L (≈ 35.5 to 355 µM).

As for `CCCc1cc(=O)oc2c3c(c4c(c12)OC(C)(C)C=C4)O[C@H](C)[C@@H](C)C3=O` [(+)-12-Oxocalanolide A (6), (+)-12-Oxocalanolide A], the “% Inhibition” value in assay [3] (12.5 μg/mL) came out at 78%. For the same molecule, the MIC in assay [3] was more than 12.5 mg/L.

Turning to `C#CCOc1cc2c(c3oc(=O)cc(CCC)c13)C(O)C(C)C(C)O2` (stereo not drawn) [Compound trans-17d, 5-(Prop-2-ynyloxy)-10-hydroxy-8,9-dimethyl-4-propyl-9,10-dihydro-8H-pyrano[2,3-f]chromen-2-one], the MIC in assay [2] is more than 128 mg/L.

Regarding `CCCc1cc(=O)oc2c(C(=O)CC)c(CC(=O)OCC)c3c(c12)OC(C)(C)CC3` [Compound 44i, 5-Ethoxycarbonylmethyl-2,2-dimethyl-6-propionyl-10-propyl-3,4-dihydro-2H,8H-pyrano[2,3-f]chromen-8-one], in assay [2] (setting [7]), the MIC was more than 128 mg/L.

`C=CCOc1cc2c(c3oc(=O)cc(CCC)c13)C(O)C(C)C(C)O2` (stereo not drawn) [cis-17c, 5-(Allyloxy)-10-hydroxy-8,9-dimethyl-4-propyl-9,10-dihydro-8H-pyrano[2,3-f]chromen-2-one]: the “effect on M. tuberculosis” value in assay [1] is “bactericidal”. In assay [1] (H37RA), this molecule returned an MBC of 64 mg/L (≈ 186 µM) and a minimal inhibitory concentration (MIC) of 16 mg/L (≈ 46.5 µM).

For the molecule `CCCc1cc(=O)oc2c3c(c4c(c12)OC(C)(C)C=C4)O[C@@H](C)[C@H](C)[C@@H]3O` [(−)-Calanolide B (3), (−)-Calanolide B], the “% Inhibition” value in assay [3] (12.5 μg/mL) is 99%. The minimal inhibitory concentration (MIC) in assay [3] is 6.25 mg/L (≈ 16.9 µM).

In the case of `CCCc1cc(=O)oc2c(C(O)CC)c(OCCO)c3c(c12)OC(C)(C)C=C3` (stereo not shown) [Compound 11e, 5-(2-Hydroxyethoxy)-6-(1-hydroxypropyl)-2,2-dimethyl-10-propyl-2H-pyrano[2,3-f]chromen-8-one], the MIC in assay [2] (setting [6]) was in the range of 12.8 to 128 mg/L (≈ 33 to 330 µM).

For `CCCc1cc(=O)oc2c(C(=O)CC)c(O)c3c(c12)OC(C)(C)CC3` [Compound 44a, 5-Hydroxy-2,2-dimethyl-6-propionyl-10-propyl-3,4-dihydro-2H-pyrano[2,3-f]chromen-8-one], the minimal inhibitory concentration (MIC) in assay [2] (setting [6]) was more than 128 mg/L.

Regarding “7,8-Dihydrosoulattrolide [7,8-Dihydrosoulattrolide (5)]”, the “% Inhibition” value in assay [3] (12.5 μg/mL) came to 99%. The same molecule showed a minimum inhibitory concentration (MIC) in assay [3] of 6.25 mg/L.

Take `CCCc1cc(=O)oc2c(C(O)CC)c(O)c3c(c12)OC(C)(C)C=C3` (stereo not shown) [Compound 11a, 5-Hydroxy-6-(1-hydroxypropyl)-2,2-dimethyl-10-propyl-2H-pyrano[2,3-f]chromen-8-one]: the MIC in assay [2] (setting [6]) fell in the range of 12.8 to 128 mg/L (≈ 37.2 to 372 µM).

Consider `C=CC(C)Oc1cc2c(c3oc(=O)cc(CCC)c13)C(O)C(C)C(C)O2` (stereo not drawn) [cis-17f, 5-(1-Methylallyloxy)-10-hydroxy-8,9-dimethyl-4-propyl-9,10-dihydro-8H-pyrano[2,3-f]chromen-2-one], for which the minimum inhibitory concentration (MIC) in assay [1] (setting [4]) turned out to be 16 mg/L (≈ 44.6 µM). Moreover, the MBC in assay [1] (setting [5]) is more than 64 mg/L.

Regarding `CCCc1cc(=O)oc2c(C(O)CC)c(O)c3c(c12)OC(C)(C)CC3` (stereo not shown) [Compound 12a, 5-Hydroxy-6-(1-hydroxypropyl)-2,2-dimethyl-10-propyl-3,4-dihydro-2H-pyrano[2,3-f]chromen-8-one], the MIC in assay [2] (setting [6]) lay in the range of 12.8 to 128 mg/L (≈ 36.9 to 369 µM).

As a reminder, the inhibition is how much of the control response was suppressed. Read a low inhibition as a weak effect. Consider `C[C@H]1[C@H](C)Oc2c3c(c4c(-c5ccccc5)cc(=O)oc4c2[C@H]1O)OC(C)(C)C=C3` [Soulattrolide (4), Soulattrolide], for which the inhibition at 12.5 µg/mL in assay [3] (Mycobacterium tuberculosis, 12.5 μg/mL) was found to be 99%. Further, the MIC in assay [3] (Mycobacterium tuberculosis, read-out: MIC) amounted to 3.13 mg/L (≈ 7.74 µM).

On to `CCCc1cc(=O)oc2c(C(=O)CC)c(OCCO)c3c(c12)OC(C)(C)C=C3` [Compound 31e, 5-(2-Hydroxy-ethoxy)-2,2-dimethyl-6-propionyl-10-propyl-2H-pyrano[2,3-f]chromen-8-one], for which, in assay [2] (setting [6]), the MIC is 12.8 to 128 mg/L (≈ 33.1 to 331 µM).

With `C=C(C)COc1cc2c(c3oc(=O)cc(CCC)c13)C(O)C(C)C(C)O2` (stereo not drawn) [trans-17g, 5-(2-Methylallyloxy)-10-hydroxy-8,9-dimethyl-4-propyl-9,10-dihydro-8H-pyrano[2,3-f]chromen-2-one], the MIC in assay [2] is more than 128 mg/L.

On to `CCCc1cc(=O)oc2c(C(=O)CC)c(OC)cc(OC)c12` [Compound 43b, 5,7-Dimethoxy-8-propionyl-4-propyl-chromen-2-one], for which the MIC in assay [2] (setting [6]) was more than 128 mg/L.

In assay [2], `C=CCOc1cc2c(c3oc(=O)cc(CCC)c13)C(O)C(C)C(C)O2` (stereo not drawn) [trans-17c, 5-(Allyloxy)-10-hydroxy-8,9-dimethyl-4-propyl-9,10-dihydro-8H-pyrano[2,3-f]chromen-2-one] displayed an MIC of more than 128 mg/L.

For the molecule `CCCc1cc(=O)oc2c3c(c4c(c12)OC(C)(C)C=C4)O[C@H](C)[C@@H](C)C3=O` (racemic) [(±)-6], the “% Inhibition” value in assay [3] (12.5 μg/mL) is 59%. Further, in assay [3], the MIC was more than 12.5 mg/L.

With `CCCc1cc(=O)oc2c(C(=O)CC)c(OC(C)C)c3c(c12)OC(C)(C)CC3` [Compound 44h, 5-Isopropoxy-2,2-dimethyl-6-propionyl-10-propyl-3,4-dihydro-2H-pyrano[2,3-f]chromen-8-one], in assay [2] (setting [6]), the MIC is more than 128 mg/L.

Consider `CCCc1cc(=O)oc2c3c(cc(OC)c12)OC(C)C(C)C3O` (stereo not drawn) [cis-17b, 5-Methoxy-10-hydroxy-8,9-dimethyl-4-propyl-9,10-dihydro-8H-pyrano[2,3-f]chromen-2-one], for which the MIC in assay [2] was more than 128 mg/L.

The record behind these values is US6670383B2, “Pyranocoumarin compounds as a novel pharmacophore with anti-TB activity” (priority 2001, dated 2003).
